{"source": "patent US20140357579A1", "about": "“SYNTHETIC PEPTIDE AMIDES AND DIMERS THEREOF” (priority 2006, published 2014)", "key": {"CYP2C9": {"molecular_target": "CYP2C9 (Homo sapiens, UniProt P11712)", "sequence (P11712 whole entry)": "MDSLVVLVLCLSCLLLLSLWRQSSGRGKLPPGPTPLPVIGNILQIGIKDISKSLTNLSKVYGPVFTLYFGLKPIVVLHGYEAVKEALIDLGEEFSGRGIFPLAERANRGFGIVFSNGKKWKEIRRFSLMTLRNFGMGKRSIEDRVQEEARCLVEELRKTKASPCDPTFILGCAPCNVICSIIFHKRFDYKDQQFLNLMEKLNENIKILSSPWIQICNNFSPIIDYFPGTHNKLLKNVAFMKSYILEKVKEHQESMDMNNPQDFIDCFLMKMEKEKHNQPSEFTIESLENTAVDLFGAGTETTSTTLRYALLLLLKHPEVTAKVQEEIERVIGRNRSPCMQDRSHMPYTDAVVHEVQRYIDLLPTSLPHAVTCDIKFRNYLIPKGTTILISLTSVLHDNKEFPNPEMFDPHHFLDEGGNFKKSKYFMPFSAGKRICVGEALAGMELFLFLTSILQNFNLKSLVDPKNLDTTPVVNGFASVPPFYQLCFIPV", "experiment": "Cytochrome P450 CYP2C9 inhibition, human liver microsomes (Cerep)", "details": "10 uM test compound, percent remaining CYP activity"}, "CYP3A4": {"molecular_target": "CYP3A4 (Homo sapiens, UniProt P08684)", "sequence (P08684 whole entry)": "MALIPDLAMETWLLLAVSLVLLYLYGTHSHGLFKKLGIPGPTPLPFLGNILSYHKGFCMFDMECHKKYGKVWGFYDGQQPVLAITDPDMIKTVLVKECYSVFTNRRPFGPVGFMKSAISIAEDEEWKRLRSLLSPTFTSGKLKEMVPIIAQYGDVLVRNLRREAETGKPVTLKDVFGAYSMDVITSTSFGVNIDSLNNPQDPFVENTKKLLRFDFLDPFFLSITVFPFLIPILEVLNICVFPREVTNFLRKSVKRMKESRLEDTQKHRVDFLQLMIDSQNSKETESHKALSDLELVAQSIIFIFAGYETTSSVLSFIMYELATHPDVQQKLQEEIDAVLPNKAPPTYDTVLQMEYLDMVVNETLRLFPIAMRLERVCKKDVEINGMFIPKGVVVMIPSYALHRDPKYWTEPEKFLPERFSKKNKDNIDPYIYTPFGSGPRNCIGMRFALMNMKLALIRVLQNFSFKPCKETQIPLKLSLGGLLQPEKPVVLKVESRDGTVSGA", "experiment": "Recombinant human cytochrome P450 CYP3A4 inhibition (Cerep)", "details": "10 uM test compound, percent remaining CYP activity"}, "CYP2D6": {"molecular_target": "CYP2D6 (Homo sapiens, UniProt P10635)", "sequence (P10635 whole entry)": "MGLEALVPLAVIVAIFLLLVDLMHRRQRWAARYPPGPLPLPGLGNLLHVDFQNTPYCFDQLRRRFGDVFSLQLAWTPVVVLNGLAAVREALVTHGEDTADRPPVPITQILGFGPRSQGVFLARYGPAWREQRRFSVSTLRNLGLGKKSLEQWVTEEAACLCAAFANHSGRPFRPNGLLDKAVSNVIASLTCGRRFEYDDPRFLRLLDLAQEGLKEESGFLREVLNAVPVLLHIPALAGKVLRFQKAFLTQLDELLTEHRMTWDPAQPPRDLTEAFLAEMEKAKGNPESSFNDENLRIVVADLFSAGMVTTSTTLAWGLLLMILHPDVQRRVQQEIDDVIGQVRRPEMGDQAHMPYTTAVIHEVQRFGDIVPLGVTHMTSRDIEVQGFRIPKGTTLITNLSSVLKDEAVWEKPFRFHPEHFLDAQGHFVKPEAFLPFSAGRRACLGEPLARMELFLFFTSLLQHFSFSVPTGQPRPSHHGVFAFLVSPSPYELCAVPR", "experiment": "Cytochrome P450 CYP2D6 inhibition, human liver microsomes (Cerep)", "details": "10 uM test compound, percent remaining CYP activity"}, "CYP2C19": {"molecular_target": "CYP2C19 (Homo sapiens, UniProt P33261)", "sequence (P33261 whole entry)": "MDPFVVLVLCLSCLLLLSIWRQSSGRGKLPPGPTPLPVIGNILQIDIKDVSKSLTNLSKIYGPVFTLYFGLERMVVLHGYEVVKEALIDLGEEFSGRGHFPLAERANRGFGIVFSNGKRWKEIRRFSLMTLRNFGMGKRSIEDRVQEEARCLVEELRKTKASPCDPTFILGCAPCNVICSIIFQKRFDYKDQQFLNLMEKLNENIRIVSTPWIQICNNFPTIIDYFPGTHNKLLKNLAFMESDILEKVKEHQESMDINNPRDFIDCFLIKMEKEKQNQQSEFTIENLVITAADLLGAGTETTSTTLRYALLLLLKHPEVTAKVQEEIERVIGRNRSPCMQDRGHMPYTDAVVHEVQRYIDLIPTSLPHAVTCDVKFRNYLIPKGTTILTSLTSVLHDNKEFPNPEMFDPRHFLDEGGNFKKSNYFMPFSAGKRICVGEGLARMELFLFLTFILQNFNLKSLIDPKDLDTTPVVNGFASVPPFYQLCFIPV", "experiment": "Cytochrome P450 CYP2C19 inhibition, human liver microsomes (Cerep)", "details": "10 uM test compound, percent remaining CYP activity"}, "[1]": {"molecular_target": "T1, mouse kappa opioid receptor (mKOR) (Mus musculus, UniProt P33534)", "T1 construct": "a mouse thymoma cell line that expresses only the kappa-opioid receptor and no other opioid receptor subtype; host or cells: R1.G1 mouse thymoma cells", "T1 sequence (P33534 whole entry)": "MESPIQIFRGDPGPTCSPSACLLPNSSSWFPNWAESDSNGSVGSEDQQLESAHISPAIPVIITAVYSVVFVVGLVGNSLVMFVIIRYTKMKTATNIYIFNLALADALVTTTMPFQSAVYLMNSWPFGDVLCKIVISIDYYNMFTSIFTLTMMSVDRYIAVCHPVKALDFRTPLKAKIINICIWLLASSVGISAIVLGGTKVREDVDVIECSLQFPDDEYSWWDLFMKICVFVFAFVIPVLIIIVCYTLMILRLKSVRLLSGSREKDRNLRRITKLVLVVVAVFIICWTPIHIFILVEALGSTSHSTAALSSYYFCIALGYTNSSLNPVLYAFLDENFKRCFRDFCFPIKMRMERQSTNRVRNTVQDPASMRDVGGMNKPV", "experiment": "Inhibition of forskolin-stimulated cAMP production in R1.G1 cells (TR-FRET cAMP immunoassay)", "format": "cell-based", "details": "R1.G1 cells"}, "CYP1A": {"system": "CYP1A", "experiment": "Cytochrome P450 CYP1A inhibition, human liver microsomes (Cerep)", "details": "10 uM test compound, percent remaining CYP activity"}, "[2]": {"molecular_target": "T2, human kappa opioid receptor (hKOR) (Homo sapiens, UniProt P41145)", "T2 construct": "expressed in transfected cells; host or cells: HEK-293 cells (ATCC), transient transfection with pcDNA3-hOPRK1", "T2 sequence (P41145 whole entry)": "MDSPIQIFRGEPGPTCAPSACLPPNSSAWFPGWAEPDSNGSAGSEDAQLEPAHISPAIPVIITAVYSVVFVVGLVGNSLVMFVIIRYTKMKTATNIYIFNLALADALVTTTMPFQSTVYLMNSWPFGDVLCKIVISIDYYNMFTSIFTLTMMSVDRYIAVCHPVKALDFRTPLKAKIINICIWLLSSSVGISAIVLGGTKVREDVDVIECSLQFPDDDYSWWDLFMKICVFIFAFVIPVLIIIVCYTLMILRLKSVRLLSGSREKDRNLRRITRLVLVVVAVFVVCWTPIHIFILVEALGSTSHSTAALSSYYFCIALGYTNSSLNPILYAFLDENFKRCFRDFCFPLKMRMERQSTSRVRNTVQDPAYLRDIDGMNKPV", "experiment": "NFAT-luciferase reporter assay in HEK-293 cells transfected with human kappa opioid receptor and chimeric G-protein", "format": "cell-based", "details": "for EC50: transfected HEK-293 cells, luciferase reporter, read-out: hKOR EC50"}, "mice [3]": {"system": "mice", "experiment": "Acetic acid-induced writhing assay in mice", "format": "in vivo", "details": "IRC mice, delivered subcutaneously"}, "mice [4]": {"system": "mice", "experiment": "Inhibition of locomotion in mice (sedation)", "details": "delivered subcutaneously"}, "human mu opioid receptor": {"molecular_target": "human mu opioid receptor (Homo sapiens, UniProt P35372)", "sequence (P35372 whole entry)": "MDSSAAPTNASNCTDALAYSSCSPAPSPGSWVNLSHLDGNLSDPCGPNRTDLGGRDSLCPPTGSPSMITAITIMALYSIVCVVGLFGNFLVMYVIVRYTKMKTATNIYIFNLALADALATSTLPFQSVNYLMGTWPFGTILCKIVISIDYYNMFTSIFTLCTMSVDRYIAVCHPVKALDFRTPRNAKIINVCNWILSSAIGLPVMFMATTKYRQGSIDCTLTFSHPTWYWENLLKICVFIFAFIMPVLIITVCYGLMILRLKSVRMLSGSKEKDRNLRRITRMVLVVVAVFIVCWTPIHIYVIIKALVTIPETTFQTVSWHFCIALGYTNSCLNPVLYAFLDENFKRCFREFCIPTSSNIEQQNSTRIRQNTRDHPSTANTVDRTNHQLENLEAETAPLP", "experiment": "Similar assay for potency on the human mu opioid receptor", "format": "cell-based", "procedure": "Synthetic peptide amides of the invention were tested in a similar assay for potency on the human mu opioid receptor.\nThe synthetic peptide amide (53) was tested in a similar assay for potency on the human mu opioid receptor."}, "[5]": {"details": "percent maximal activation compared to full induction by known kappa agonists"}}}
{"smiles": "CC(C)C[C@@H](NC(=O)[C@@H](Cc1ccccc1)NC(=O)[C@H](N)Cc1ccccc1)C(=O)N[C@H](CCCN)C(=O)N1CCCN(C2=NCCN2)CC1", "note": "[Compound 17, D-Phe-D-Phe-D-Leu-D-Orn-[4-(4,5-dihydro-1H-imidazol-2-yl)homopiperazine amide]]", "values": [{"measurement": "Percent Activity of CYP2C9", "setting": "CYP2C9; Expt 1", "result": 99.2, "unit": "%"}, {"measurement": "Percent Activity of CYP2C9", "setting": "CYP2C9; Expt 2", "result": 98.2, "unit": "%"}, {"measurement": "Percent Activity of CYP3A4", "setting": "CYP3A4; Expt 1", "result": 94.7, "unit": "%"}, {"measurement": "Percent Activity of CYP3A4", "setting": "CYP3A4; Expt 2", "result": 95.9, "unit": "%"}, {"measurement": "Percent Activity of CYP2D6", "setting": "CYP2D6; Expt 1", "result": 98.4, "unit": "%"}, {"measurement": "Percent Activity of CYP2D6", "setting": "CYP2D6; Expt 2", "result": 98.2, "unit": "%"}, {"measurement": "Percent Activity of CYP2C19", "setting": "CYP2C19; Expt 1", "result": 94.1, "unit": "%"}, {"measurement": "Percent Activity of CYP2C19", "setting": "CYP2C19; Expt 2", "result": 97.8, "unit": "%"}, {"measurement": "mKOR Efficacy(%)", "setting": "[1]", "result": 99, "unit": "%"}, {"measurement": "Percent Activity of CYP1A", "setting": "CYP1A; Expt 1", "result": 97.1, "unit": "%"}, {"measurement": "Percent Activity of CYP1A", "setting": "CYP1A; Expt 2", "result": 95.8, "unit": "%"}, {"measurement": "hKOR Efficacy(%)", "setting": "[2]; [5]", "result": 90, "unit": "%"}, {"measurement": "EC50", "setting": "[2]", "result": 0.12, "unit": "nM"}, {"measurement": "ED50 in the acetic acid-induced writhing assay", "setting": "mice [3]", "result": 0.074, "unit": "mg/kg"}, {"measurement": "ED50 in the inhibition of locomotion assay", "setting": "mice [4]", "result": 3.172, "unit": "mg/kg"}]}
{"smiles": "CC(C)C[C@@H](NC(=O)[C@@H](Cc1ccccc1)NC(=O)[C@H](N)Cc1ccccc1)C(=O)N[C@H](CCCN)C(=O)NCCCC[C@@H](NC(=O)[C@H](N)CCCN)C(=O)O", "note": "[Compound 45]", "values": [{"measurement": "EC50", "setting": "[1]; inhibition of forskolin-stimulated cAMP, read-out: mKOR EC50", "result": 0.05, "unit": "nM"}, {"measurement": "Emax", "setting": "[1]; read-out: mKOR Efficacy(%)", "result": 96, "unit": "%"}, {"measurement": "Emax", "setting": "[2]; HEK293, percent maximal activation compared to full induction by known kappa agonists, read-out: hKOR Efficacy(%)", "result": 96, "unit": "%"}, {"measurement": "EC50", "setting": "[2]", "result": 0.28, "unit": "nM"}]}
{"smiles": "CC(C)C[C@@H](NC(=O)[C@@H](Cc1ccccc1)NC(=O)[C@H](N)Cc1ccccc1)C(=O)N[C@H](CCCN)C(=O)N1CCOC(C(=O)O)C1", "note": "(stereo partly drawn) [Compound 53, D-Phe-D-Phe-D-Leu-D-Orn-[R/S-2-carboxymorpholine]-OH]", "values": [{"measurement": "EC50", "setting": "human mu opioid receptor", "result": "≥ 1000", "unit": "nM"}, {"measurement": "mKOR Efficacy(%)", "setting": "[1]", "result": 100, "unit": "%"}, {"measurement": "hKOR Efficacy(%)", "setting": "[2]; [5]", "result": 100, "unit": "%"}]}
